Data: patent publication US20150283127A1, “SAQUINAVIR-NO FOR IMMUNOMODULATION” (ONCONOX APS, priority 2012, published 2015)

Columns and labels:
human PBMC = details: PMA plus ionomycin, cited from earlier work
HIV = details: cited from earlier work
SCC = test: IFN-g and IL-17 release from rat spinal cord infiltrating cells (SCC); format: cell-based; details: unstimulated SCC isolated at the peak of EAE
Excerpt: Experimental animals (C57BL/6 mice, BALB/c mice and Dark Agouti rats) were obtained from the Animal House Facility of the Institute for Biological Research “Sinisa Stanković”, Belgrade, Serbia. Spleen cells (SPC) were isolated from murine spleens and lymph node cells (LNC) were obtained from rat cervical lymph nodes of untreated animals. Draining lymph node cells (DLNC) were obtained from popliteal lymph nodes 8-10 days after immunization of rats with myelin basic protein (guinea pig MBP, kind gift from professor Alexander Fluegel, University of Goettingen, Germany) and complete Freund's adjuvant (CFA, Difco, Detroit, Mich.). […] Obtained purity of CD4 population was more than 97% as determined by flow cytometry. […]
Cytokine concentration in cell culture supernatants was determined by sandwich ELISA using MaxiSorp plates (Nunc, Rochild, Denmark) and anti-cytokine paired antibodies according to the manufacturer's instructions. Samples were analyzed in duplicate for murine/rat IL-17, murine IL-10, murine TNF, murine IL-4 (eBioscience), murine IFN-γ, rat IFN-γ, rat IL-4 (R&D, Minneapolis, Minn.), rat IL-10 and rat TNF (BD Biosciences). The results were calculated using standard curves made on the basis of known concentrations of the appropriate recombinant cytokines.
Next, we determined the influence of Saq-NO on encephalitogen-specific generation of IFN-g and IL-17. […]

[1] = system: experimental autoimmune uveoretinitis (EAU); test: Experimental autoimmune uveoretinitis (EAU) in the Wistar rat, histology; format: in vivo
Method: Female Wistar Rats n=28 (8 weeks-old) were purchased from Pasteur Institute (Algiers, Algeria). These rats were acclimated to their new environment for one week before the start of experiments and kept under normal conditions with a 12 h dark/light cycle and free access to food and water.
These animals were divided into four groups:
Control group (n=6) it consisted in non treated animals
Vehicle group (n=6) received a daily intraperitoneal injection of DMSO at 20% starting from the day of immunization.
Retinal crude extract immunized rats (referred to as EAU group n=8) received a single subcutaneous injection of 200 μL with Retinal Crude Extract emulsified in complete Freund's adjuvant; CFA (v/v) and were left untreated.
SaqNO (reference) treated rats (n=8) they received a daily intraperitoneal injection of SaqNO at 10 μg/kg starting from the day of immunization.
Fresh bovine eyes (n=20) were used in the experiments. They were cut just in posterior to the ora serrata, the vitreous was then removed without causing retinal detachment. The retinas were removed carefully and put in PBS, pH 7.4. They were then subjected to three successive thermal shock (−20° C. and +37°) in order to release retinal antigens. The retinal crude extract was obtained after a centrifugation at 4000 rpm for 15 min and conserved at −20° C. until further utilization.
[…]. In parallel, all rats from each group were also sacrificed.
For histopathological analysis, eyes were enucleated from each group and fixed in 10% phosphate-buffered formaldehyde. Tissue sections of 5 μm thickness were stained with hematoxylin and eosin (H&E). Sections were examined using a standard microscope (Zeiss) and pictures were taken using a digital camera at ×40 resolution Histological criteria were based on the degree of architectural changes. The histological scores were assessed semi-quantitatively by microscopic examination as follows:
No morphological changes, 0; minimal morphological changes of the outer nuclear layer (ONL) in retina, 1; atrophy of INL, 2; disappearance of INL, 3; and damage of total retinal layers, 4.

[2] = system: melanoma, astrocytoma, prostate cancer cells and various human multidrug resistant tumor cell lines; details: cited from earlier work
murine SPC = test: Viability of murine SPC (MTT mitochondrial activity assay); format: cell-based, mouse; details: minor compared with the influence on cytokines
Excerpt: Experimental animals (C57BL/6 mice, BALB/c mice and Dark Agouti rats) were obtained from the Animal House Facility of the Institute for Biological Research “Sinisa Stanković”, Belgrade, Serbia. Spleen cells (SPC) were isolated from murine spleens and lymph node cells (LNC) were obtained from rat cervical lymph nodes of untreated animals. Draining lymph node cells (DLNC) were obtained from popliteal lymph nodes 8-10 days after immunization of rats with myelin basic protein (guinea pig MBP, kind gift from professor Alexander Fluegel, University of Goettingen, Germany) and complete Freund's adjuvant (CFA, Difco, Detroit, Mich.). The organs were mechanically disrupted, passed through 40-μm nylon mesh filter and the resulting suspension was collected by centrifugation. Red blood cells from single cell suspensions obtained from spleens were lysed using RBC Lysis Buffer (eBioscience, San Diego, Calif.). […] Obtained purity of CD4 population was more than 97% as determined by flow cytometry. […]
In order to assess the viability of SPC, LNC, DLNC and SCC by mitochondrial activity assay we used the mitochondrial-dependent reduction of 3-(4,5-dimethylthiazol-2-yl)-2,5-[…] bromide (MTT) to formazan. […] The absorbances in MTT assay were measured at […], with a correction at 690 nm, using an automated microplate reader (LKB 5060-006, LKB, Vienna, Austria).

Compound | TNF-alpha synthesis (human PBMC; 10 to 20 μM) | Synthesis of IL-2 and IFN-gamma production (human PBMC; concentration between 10 and 20 μM) | Anti-HIV potency relative to parental drug (HIV) | IFN-g and IL-17 release (SCC) | Uveitis clinical score ([1]; 10 μg/kg daily, P<0.05) | Histological structure of retinal tissue ([1]; 10 μg/kg i.p. daily from immunization, day 14) | Histopathological scores ([1]; 10 μg/kg, P<0.05) | Development of EAU ([1]; prophylactic treatment) | Anti-cancer properties in comparison to Saq [2] | SPC viability (murine SPC)
CC(C)(C)NC(=O)[C@@H]1C[C@@H]2CCCC[C@@H]2CN1C[C@@H](O)[C@H](Cc1ccccc1)NC(=O)[C@H](CC(N)=O)NC(=O)c1ccc2ccccc2n1 [Saq, (2S)—N-[(2S,3R)-4-[(3S)-3-(tert-butylcarbamoyl)-decahydroisoquinolin-2-iy]-3-hydroxy-1-phenylbutan-2-il]-2-(quinolin-2-ylformamido)butanediamide, reference compound] | without influencing | downregulate | – | – | – | – | – | – | – | –
CC(C)(C)NC(=O)C1C[C@@H]2CCCC[C@@H]2CN1CC(O[N+](=O)[O-])[C@H](Cc1ccccc1)NC(=O)C(CC(N)=O)NC(=O)c1ccc2ccccc2n1 (stereo partly shown) [Saq-NO, nitric ester of Saquinavir] | – | – | retained | potently inhibited | improved significantly | ameliorated significantly | ameliorated | prevents development of EAU | superior | statistically significantly inhibited
